“And” between values parts separate entries of the source, which are not always exact repeats. Identical values can stand only once.
How the values were obtained:
Assay type in all cases: cell-based
WT mGlu1 = target: T1, WT mGlu1 (Rattus norvegicus, UniProt P23385); settings: single-cell values #1-#20; WT
T1 construct: expressed in transfected cells; host or cells: HEK293

mGlu1 P58H/N264H mutant = target: T2, mGlu1 P58H/N264H mutant (Rattus norvegicus, UniProt P23385, N264H/P58H); assay: Fura-2 Ca2+ imaging in HEK293 cells expressing mGlu1 P58H/N264H
T2 construct: expressed in transfected cells; host or cells: HEK293
T2 sequence (P23385 19-1199 P58H/N264H): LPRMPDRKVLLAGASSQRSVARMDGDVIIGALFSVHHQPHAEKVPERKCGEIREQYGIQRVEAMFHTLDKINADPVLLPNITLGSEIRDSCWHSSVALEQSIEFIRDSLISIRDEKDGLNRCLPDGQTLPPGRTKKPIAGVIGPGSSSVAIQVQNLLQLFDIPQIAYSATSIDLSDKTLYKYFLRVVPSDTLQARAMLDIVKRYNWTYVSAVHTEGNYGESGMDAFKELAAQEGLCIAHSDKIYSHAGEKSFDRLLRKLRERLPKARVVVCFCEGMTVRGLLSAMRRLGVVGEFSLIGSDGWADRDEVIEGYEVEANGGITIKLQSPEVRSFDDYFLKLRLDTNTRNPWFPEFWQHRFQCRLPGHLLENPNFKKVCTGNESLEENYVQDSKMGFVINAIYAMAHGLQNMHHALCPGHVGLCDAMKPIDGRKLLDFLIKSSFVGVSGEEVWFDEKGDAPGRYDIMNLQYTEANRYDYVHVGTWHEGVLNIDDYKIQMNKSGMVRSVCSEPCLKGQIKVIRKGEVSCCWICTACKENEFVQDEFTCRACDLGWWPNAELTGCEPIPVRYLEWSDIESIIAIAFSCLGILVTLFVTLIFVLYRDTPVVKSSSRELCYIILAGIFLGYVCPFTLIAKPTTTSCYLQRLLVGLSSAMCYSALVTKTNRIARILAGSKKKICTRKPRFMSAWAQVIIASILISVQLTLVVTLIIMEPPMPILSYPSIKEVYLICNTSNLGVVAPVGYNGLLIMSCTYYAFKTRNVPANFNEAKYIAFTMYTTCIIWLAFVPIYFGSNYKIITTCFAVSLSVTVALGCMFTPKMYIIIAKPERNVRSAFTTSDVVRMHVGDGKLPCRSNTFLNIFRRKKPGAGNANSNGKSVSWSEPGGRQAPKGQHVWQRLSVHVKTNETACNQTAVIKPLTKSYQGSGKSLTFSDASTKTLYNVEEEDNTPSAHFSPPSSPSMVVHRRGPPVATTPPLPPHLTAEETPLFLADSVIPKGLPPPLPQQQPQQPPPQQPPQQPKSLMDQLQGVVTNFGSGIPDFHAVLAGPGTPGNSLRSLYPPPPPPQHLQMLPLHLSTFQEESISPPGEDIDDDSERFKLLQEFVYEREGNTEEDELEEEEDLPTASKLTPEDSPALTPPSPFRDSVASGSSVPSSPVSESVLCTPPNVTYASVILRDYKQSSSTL

mGlu1 A59H/N264H mutant = target: T3, mGlu1 A59H/N264H mutant (Rattus norvegicus, UniProt P23385, A59H/N264H); assay: Fura-2 Ca2+ imaging in HEK293 cells expressing mGlu1 A59H/N264H
T3 construct: expressed in transfected cells; host or cells: HEK293
T3 sequence (P23385 19-1199 A59H/N264H): as the sequence (P23385 19-1199 P58H/N264H) above, with H40P, A41H counted along it

mGlu1 K61H/N264H mutant = target: T4, mGlu1 K61H/N264H mutant (Rattus norvegicus, UniProt P23385, K61H/N264H); assay: Fura-2 Ca2+ imaging in HEK293 cells expressing mGlu1 K61H/N264H
T4 construct: expressed in transfected cells; host or cells: HEK293
T4 sequence (P23385 19-1199 K61H/N264H): as the sequence (P23385 19-1199 P58H/N264H) above, with H40P, K43H counted along it

mGlu1(N264H) mutant [1] = target: T5, mGlu1(N264H) mutant (Rattus norvegicus, UniProt P23385, N264H); assay: Fura-2 Ca2+ imaging in HEK293 cells expressing mGlu1(N264H)
T5 construct: expressed in transfected cells; host or cells: HEK293
T5 sequence (P23385 19-1199 N264H): as the sequence (P23385 19-1199 P58H/N264H) above, with H40P counted along it

mGlu1 P57H/N264H mutant = target: T6, mGlu1 P57H/N264H mutant (Rattus norvegicus, UniProt P23385, N264H/P57H); assay: Fura-2 Ca2+ imaging in HEK293 cells expressing mGlu1 P57H/N264H; settings: single-cell values #1-#20; P57H/N264H
T6 construct: expressed in transfected cells; host or cells: HEK293
T6 sequence (P23385 19-1199 P57H/N264H): as the sequence (P23385 19-1199 P58H/N264H) above, with P39H, H40P counted along it

mGlu1 E60H/N264H mutant = target: T7, mGlu1 E60H/N264H mutant (Rattus norvegicus, UniProt P23385, E60H/N264H); assay: Fura-2 Ca2+ imaging in HEK293 cells expressing mGlu1 E60H/N264H; settings: single-cell values #1-#20; E60H/N264H
T7 construct: expressed in transfected cells; host or cells: HEK293
T7 sequence (P23385 19-1199 E60H/N264H): as the sequence (P23385 19-1199 P58H/N264H) above, with H40P, E42H counted along it

mGlu1(N264H) mutant [2] = target: T5, mGlu1(N264H) mutant; assay: Inositol-1-phosphate (IP1) accumulation assay, HEK293 cells expressing mGlu1(N264H)
[3] = tested on: HEK293 cells, control vector; assay: Inositol-1-phosphate (IP1) accumulation assay, HEK293 cells transfected with control vector; settings: 30 µM Pd(bpy); Vec
PC12 cells = assay: NGF-induced neurite outgrowth in differentiated PC12 cells; set-up: neurite outgrowth, individual values #1-#20 (Fig.4b): unit not given here; settings: for neurite outgrowth, individual values #1-#20 (Fig.4b): differentiated PC12 cells
Description: After incubation for 3 days, PC12 cells bearing neurites were randomly selected, and the length of the longest neurite in each cell was measured using ImageJ package Fiji.

[4] = HEK293 cells, Fura-2, read-out: EC50, Ca2+ response (Δratio)

T1 sequence (P23385 19-1199): as the sequence (P23385 19-1199 P58H/N264H) above, with H40P, H246N counted along it

`O=[N+]([O-])[O-].O=[N+]([O-])[O-].[Pd+2].c1ccc(-c2ccccn2)nc1` [Pd(bpy), Pd(bpy)(NO3)2] was tested. Which “Ca2+ response of individual cells (source data Suppl Fig1), WT” value (WT mGlu1) did it give?
The value was -0.002508 and 0.03248 and -0.005946 and 0.001185 and -0.01881 and -0.01405 and 0.05177 and 0.006038 and 0.01295 and 0.02212 and 0.002477 and -0.0007231 and 0.1314 and 0.1045 and 0.02565 and -0.005715 and 0.004592 and -0.01058 and -0.003931 and 0.0524.

What about the EC50 (mGlu1 P58H/N264H mutant; [4]) of the same compound?
Its EC50 is 1.2 µM.

What about the “Ca2+ response of individual cells (source data Suppl Fig1), P58H/N264H” value (mGlu1 P58H/N264H mutant; single-cell values #1-#20, P58H/N264H) of the same compound?
Its value is 1.407 and 1.235 and 0.2781 and 0.4382 and 0.4216 and 0.8249 and 0.694 and 0.5635 and 0.8179 and 0.3484 and 1.211 and 0.7928 and 0.02745 and 0.7691 and 1.112 and 0.5883 and 0.4797 and 0.3836 and 0.0272 and 0.6649.

And the EC50 (mGlu1 A59H/N264H mutant; [4])?
Its EC50 is 3.8 µM.

What about the “Ca2+ response of individual cells (source data Suppl Fig1), A59H/N264H” value (mGlu1 A59H/N264H mutant; single-cell values #1-#20, A59H/N264H) of the same compound?
Its value is 0.6362 and 0.8074 and 0.5582 and 0.806 and 0.7717 and -0.01028 and 0.5677 and 0.7063 and 0.5602 and 0.7126 and 0.6578 and 1.118 and 1.1499 and 0.77 and 0.5325 and 0.4993 and 0.7176 and 0.6258 and 0.8578 and 0.6525.

And the EC50 (mGlu1 K61H/N264H mutant; [4])?
The EC50 was 2.3 µM.

And the “Ca2+ response of individual cells (source data Suppl Fig1), K61H/N264H” value (mGlu1 K61H/N264H mutant; single-cell values, K61H/N264H)?
The value was 0.2703 and 0.5297 and 0.971 and -0.1576 and 0.5357 and 0.5344 and 1.086 and 1.005 and 0.6767 and 0.2693 and 0.4514 and -0.009392 and 0.06739 and -0.01372.

What about the “Positive allosteric effect: dose-dependency of glutamate-induced responses” value (mGlu1(N264H) mutant [1]; 3 µM Pd(bpy) in the presence of 10 µM LY367385) of the same compound?
The value was “unaffected”.

What about the “Time to basal level after wash-out by culture medium” value (mGlu1(N264H) mutant [1]; 10 µM agonist, n = 15) of the same compound?
The value was 49.0 ± 6.4 s.

What about the EC50 (mGlu1(N264H) mutant [1]; [4]) of the same compound?
The EC50 was 1.6 µM.

And the “Pd(bpy) off” value (mGlu1(N264H) mutant [1]; ave of 15 cells)?
Its value is 49 s.

And the “Pd(bpy) on” value (mGlu1(N264H) mutant [1]; ave of 15 cells)?
The value was 58 s.

And the “Effect on 100 μM glutamate-induced response” value (mGlu1(N264H) mutant [1]; in the presence of LY367385, P = 0.3803)?
Its value is “not enhanced”.

And the “Ca2+ response to Pd complex, individual cells #1-#20 (Fig.4e)” value (mGlu1(N264H) mutant [1]; single-cell values)?
The value was 0.1987 and 0.007031 and 0.6462 and 0.6597 and 0.6897 and 0.134 and 0.5276 and 0.6019 and 0.1524 and 0.7025 and 0.5861 and 1.131 and 0.7531 and 0.5352 and 0.5053 and 0.4553 and 0.9996 and 0.7233 and 0.7477 and 0.221.

What about the “Ca2+ response of individual cells (source data Suppl Fig1), P57H/N264H” value (mGlu1 P57H/N264H mutant) of the same compound?
Its value is 1.496 and 0.4197 and 0.3632 and 0.5618 and 0.3459 and 0.2699 and 0.5435 and -0.005777 and 0.04309 and 0.04215 and 0.5777 and 1 and 0.77 and 0.6187 and 0.5778 and -0.002723 and 0.1859 and 0.08165 and 0.3295 and 0.5272.

What about the “Ca2+ response of individual cells (source data Suppl Fig1), E60H/N264H” value (mGlu1 E60H/N264H mutant) of the same compound?
Its value is -0.015 and 0.1464 and 0.05592 and 0.009469 and 0.1218 and 0.005362 and 1.129 and 0.9384 and 0.8641 and 0.6693 and 0.02784 and 0.0255 and 0.002069 and -0.0022 and -0.0079 and 0.08848 and 0.002385 and -0.01194 and -0.01146 and 0.1752.

What about the “IP1 accumulation, single experiments” value (mGlu1(N264H) mutant [2]; 30 µM Pd(bpy), N264H) of the same compound?
The value was 1.924 and 2.4034 and 1.9034 and 1.783.

What about the “IP3 production evaluated by IP1 accumulation” value (mGlu1(N264H) mutant [2]; Pd(bpy) 30 µM / 10 μM (method)) of the same compound?
Its value is “increased”.

And the “IP1 accumulation, single experiments” value [3]?
Its value is 1.069 and 0.9695 and 0.8004.

And the Neurite outgrowth (PC12 cells; 100 μM, 3 days, NGF-differentiated)?
The Neurite outgrowth was “not affected”.

And the “neurite outgrowth, individual values #1-#20 (Fig.4b)” value (from here on “neurite outgrowth … (Fig.4b)”) (PC12 cells; [Pd(bpy)] 1 µM)?
The value was 135.681 and 134.669 and 132.267 and 127.77 and 127.752 and 123.426 and 118.782 and 113.497 and 109.51 and 107.296 and 102.296 and 95.2965 and 92.9706 and 197.35 and 182.054 and 180.267 and 162.995 and 150.48 and 140.539 and 136.598.

And the “neurite outgrowth … (Fig.4b)” value (PC12 cells; [Pd(bpy)] 3 µM)?
The value was 125.971 and 116.953 and 113.154 and 109.598 and 107.841 and 88.6396 and 86.7696 and 85.5685 and 80.0833 and 79.598 and 79.4975 and 76.3259 and 73.1127 and 263.255 and 244.078 and 176.493 and 155.64 and 151.309 and 138.368 and 127.894.

And the “neurite outgrowth … (Fig.4b)” value (PC12 cells; [Pd(bpy)] 10 µM)?
Its value is 140.024 and 139.953 and 126.728 and 122.326 and 118.61 and 116.811 and 111.912 and 108.941 and 106.468 and 103.983 and 102.368 and 92.3553 and 91.5269 and 184.551 and 173.426 and 168.711 and 166.853 and 164.196 and 142.426 and 140.681.

And the “neurite outgrowth … (Fig.4b)” value (PC12 cells; [Pd(bpy)] 30 µM)?
The value was 110.627 and 105.752 and 95.8406 and 93.1838 and 90.6274 and 88.9706 and 84.7696 and 80.5685 and 78.2548 and 76.598 and 71.4264 and 67.1127 and 62.669 and 292.527 and 200.326 and 143.51 and 135.196 and 131.456 and 117.853 and 113.811.

— article PMC9203742 (Nature Communications, 2022)
